Source: PMC10747112, “Triphenylphosphine Derivatives of Allylbenzenes Express Antitumor and Adjuvant Activity When Solubilized with Cyclodextrin-Based Formulations” (Pharmaceuticals, 2023)

Assays:
[1] = in vitro; format: cell-based; settings: human
Experimental: HEK293T are model normal (non-cancer) cells that are widely used to compare the selectivity of cytostatic formulations on cancer cells. According to the MTT test, the concentration of cytostatics of 100 µM causes the death of up to 85% of cancer cells A549 (Figure 4a), while for non-cancer cells (HEK293T), the dying rate is only 15–20%.
Adenocarcinomic human alveolar basal epithelial cells A549 cell lines (Manassas, VA, USA) were cultured in RPMI-1640 medium, linear cells of the embryonic kidney human epithelium (HEK293T) were grown in DMEM medium as described earlier. Cell lines were obtained from Lomonosov Moscow State University Depository of Live Systems Collection and Laboratory of Medical Biotechnology, Institute of Biomedical Chemistry (Moscow, Russia).
(§1) The cytotoxic activity of paclitaxel, Apiol-PPh3 and analogues was determined using an MTT test. Paclitaxel-adjuvant synergism coefficients (SC) were calculated as CV (paclitaxel) × CV (alone adjuvant)/CV (combo paclitaxel + adjuvant), where CV represents the cell viability. The synergy coefficient can be interpreted as strong synergy (SC > 2), synergy (2 > SC > 1.2), indifference/additivity (1.2 > SC > 0.8), antagonism (0.8 > SC > 0.5), and inhibition (SC < 0.5), as described earlier.

[2] = Dissociation constants of complexes with M-β-CD by FTIR spectroscopy (Hill fit); format: physicochemical; settings: X-PPh3, complex 1:1 molar ratio, PBS
Description: (§2) FTIR spectroscopy provides valuable data on the interaction of molecules, including those applicable to characterize the non-covalent complexes of apiol-PPh3 (and analogues) with cyclodextrins and heparin. In the FTIR spectra of apiol-PPh3 and analogues (Figure 3a), one characteristic is the bands of valence oscillations of the bonds C=C of the aromatic system (1450–1650 cm^−1) overlapping with the bands of deformation oscillations C-H (1400–1500 cm^−1). The intensity of these peaks increases with the formation of non-covalent complexes of apiol-PPh3 and its analogues with cyclodextrins and heparin due to the transition of the solid phase into solution. Linear fitting of the intensity of peaks in the FTIR spectra on the cyclodextrin or heparin concentration (Section 2.3) in Hill coordinates allows determining the dissociation constants of the complexes (Table 2). The interactions of triphenylphosphine derivatives of allylbenzenes with γ-CD is rather weak (Kd 10 mM values). In the case of M-β-CD, the dissociation constants reach millimolar values, which is sufficient to obtain soluble forms of adjuvants (Table 2). Thus, the β-cyclodextrin derivatives are more suitable in terms of size for inclusion of the adjuvants studied. […] Comparing the values of the dissociation constants of alkylbenzenes and PPh3-derivatives complexes with cyclodextrins, we observed that these Kd values are close, which means that it is the allylbenzene-fragment (of apiol-PPh3) that plunges into the cyclodextrin cavity, and the triphenylphosphine radical looks outward (Figure 3b), which would provide the implementation of mitochondrial targeting of the developed formulations.
(§3) Non-covalent complexes of apiol, apiol-PPh3 and analogues with cyclodextrins (with different molar ratios) and heparin (15 kDa, 1:1 w/w) were obtained by adding solutions of cyclodextrins (100 mg/mL) or heparin (20 mg/mL) in PBS to apiol or apiol-PPh3 (or analogues) samples (2–3 mg). The excess of CDs or heparin was varied from 0.04 to 10 mol/mol. Then, mixtures were incubated for 1 h at 40 °C. Cyclodextrin or heparin are necessary for the solubilization of extremely poorly soluble compounds.
(§4) The ATR-FTIR spectra of samples (Section 3.3) were acquired using a Bruker Tensor 27 spectrometer equipped with a liquid N2 cooled MCT (mercury cadmium telluride) detector. Samples were placed in a thermostatic cell BioATR-II with ZnSe ATR element (Bruker, Germany). FTIR spectra were recorded from 850 to 4000 cm^−1 with 1 cm^−1 spectral resolution; 50 scans were accumulated and averaged. Spectral data were processed using the Bruker software system Opus 8.2.28 (Bruker, Germany). The spectrum of cyclodextrin or heparin in the corresponding concentration was subtracted from the spectra of the complexes. […]

[3] = test system: A549 cells; assay: MTT assay, synergy of adjuvants with paclitaxel against A549; format: cell-based, human; settings: X − M-β-CD, SC = CV(paclitaxel) × CV(adjuvant)/CV(combo)
Description: Apparently PPh3 derivatives effectively penetrate into cancer cells along a potential gradient, inhibit efflux proteins and mitochondrial enzymes, causing the apoptosis of cancer cells, with IC50 values being lower by two orders of magnitude than the corresponding allylbenzene (Table 3). […] For allylbenzenes, a synergy close to additivity (the cytostatic effect of adjuvant + paclitaxel is almost equal to the sum of their individual contributions) was observed; for PPh3 derivatives, a pronounced increase in the action of paclitaxel is characteristic (the cytostatic effect of adjuvant + paclitaxel is much higher (>) than the sum of their individual contributions). For apiol-PPh3, the most pronounced effect of increasing the activity of paclitaxel was observed (Figure 4b).
Figure 4 Viability of A549 cells in the presence of paclitaxel and allylbenzenes’ PPh3 derivatives in the form of complexes with M-β-CD (1:5 mol/mol). MTT assay. (a) Dose–effect graphs. (b) MTT assay results for 100 nM paclitaxel alone and combined with allylbenzenes’ PPh3 derivatives in the form of complexes with M-β-CD (1:5 mol/mol).
as §1

[4] = Dissociation constants of complexes with heparin by FTIR spectroscopy (Hill fit); format: physicochemical; settings: calculated per one unit of heparin C12H19NO20S3, PBS
Description: as §2, §3, §4

| SMILES | viability at 10 µM [1] [%] | viability at 100 µM [1] [%] | viability at 300 µM [1] [%] | −lg Kd (X − M-β-CD) [2] | Synergy Coefficients of Adjuvants and PPh3–Adjuvants with Paclitaxel [3] | −lg Kd (X − Heparin) [4] |
| --- | --- | --- | --- | --- | --- | --- |
| COc1cc(CCC[P+](c2ccccc2)(c2ccccc2)c2ccccc2)c(OC)c(OC)c1OC [Allyltetramethoxybenzene-PPh3] | 98 ± 1 | 88 ± 3 | 83 ± 4 | 3.1 ± 0.2 | 1.3 ± 0.1 | 3.2 ± 0.1 |
| COc1cc(CCC[P+](c2ccccc2)(c2ccccc2)c2ccccc2)cc2c1OCO2 [Myristicin-PPh3] | 97 ± 3 | 91 ± 2 | 75 ± 3 | 3.0 ± 0.3 | 1.8 ± 0.3 | 2.6 ± 0.2 |
| COc1cc(CCC[P+](c2ccccc2)(c2ccccc2)c2ccccc2)c(OC)c2c1OCO2 [Apiol-PPh3] | 93 ± 2 | 82 ± 3 | 71 ± 2 | 2.9 ± 0.3 | 2.2 ± 0.2 | 2.7 ± 0.2 |
| COc1c(CCC[P+](c2ccccc2)(c2ccccc2)c2ccccc2)cc2c(c1OC)OCO2 [Dillapiol-PPh3] | 95 ± 3 | 84 ± 5 | 70 ± 5 | 2.6 ± 0.2 | 1.5 ± 0.1 | 3.0 ± 0.3 |
